Earlier results on 1 compound are cited in patent US20070036851A1, “Acid labile drug compositions” (priority 2002, published 2007).

The conditions of this series: in vitro, water, pH of about 6; colour changes from clear to yellow, then brown, then purple.

Regarding `COc1ccc2[nH]c([S+]([O-])Cc3ncc(C)c(OC)c3C)nc2c1` (stereo not shown) [omeprazole], the “stability at acidic pH (drug degradation)” value is reported as “quickly cyclizes”.
